Columns and labels:
Experiment in all cases: relative viability (nuclei count vs DMSO), 5 days (fraction); higher = more cells survive
[1] = compound: Nc1ccccc1NC(=O)c1ccc(CNC(=O)OCc2cccnc2)cc1 [Entinostat] + Nc1ncn([C@H]2C[C@H](O)[C@@H](CO)O2)c(=O)n1 [Decitabine] (partner 2 µM)
Summary of the method: (§1)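 Relative viability is defined as nuclei in treated wells over nuclei in vehicle wells. Duplicate plates were run and medians reported. Lung cancer cell lines in 1536-well plates were dosed by pin tool one day after seeding, with one drug or with a fixed anchor-drug dose plus five library-drug doses (not always all listed) in √10 steps, and nuclei were counted after 5 days.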

[2] = compound: C1COCCN1C2=NC(=NC3=C2OC4=C3C=CC=N4)C5=CC(=CC=C5)NC(=O)C6=CN=C(C=C6)N + CS(=O)(=O)CCNCc1ccc(-c2ccc3ncnc(Nc4ccc(OCc5cccc(F)c5)c(Cl)c4)c3c2)o1 [Lapatinib] (partner 2 µM)
Summary of the method: as §1

[3] = compound: C1COCCN1C2=NC(=NC3=C2OC4=C3C=CC=N4)C5=CC(=CC=C5)NC(=O)C6=CN=C(C=C6)N + CS(=O)(=O)N1CCN(Cc2cc3nc(-c4cccc5[nH]ncc45)nc(N4CCOCC4)c3s2)CC1 [Pictilisib] (partner 1 µM)
Summary of the method: as §1

[4] = compound: Nc1ccccc1NC(=O)c1ccc(CNC(=O)OCc2cccnc2)cc1 [Entinostat] + CS(=O)(=O)N1CCN(Cc2cc3nc(-c4cccc5[nH]ncc45)nc(N4CCOCC4)c3s2)CC1 [Pictilisib] (partner 1 µM)
Summary of the method: as §1

Cell Line	relative viability ([1]; first compound 0.02 µM)	relative viability ([1]; first compound 0.06325 µM)	relative viability ([1]; first compound 0.2 µM)	relative viability ([1]; first compound 0.6325 µM)	relative viability ([1]; first compound 2 µM)	relative viability ([2]; first compound 0.02 µM)	relative viability ([2]; first compound 0.06325 µM)	relative viability ([2]; first compound 0.2 µM)	relative viability ([2]; first compound 0.6325 µM)	relative viability ([2]; first compound 2 µM)	relative viability ([3]; first compound 0.02 µM)	relative viability ([3]; first compound 0.06325 µM)	relative viability ([3]; first compound 0.2 µM)	relative viability ([3]; first compound 0.6325 µM)	relative viability ([3]; first compound 2 µM)	relative viability ([4]; first compound 0.02 µM)	relative viability ([4]; first compound 0.06325 µM)	relative viability ([4]; first compound 0.2 µM)	relative viability ([4]; first compound 0.6325 µM)	relative viability ([4]; first compound 2 µM)
NCI-H1651	0.666	0.824	0.609	0.558	0.19	0.975	0.839	0.786	0.84	0.614	0.621	0.608	0.68	0.567	0.31	0.624	0.674	0.572	0.452	0.365
NCI-H1666	0.887	0.793	0.707	0.669	0.511	0.708	0.598	0.56	0.648	0.434	0.466	0.38	0.404	0.311	0.41	0.44	0.403	0.34	0.258	0.258
NCI-H1734	0.555	0.483	0.464	0.451	0.298	1.18	1.09	0.935	0.902	0.558	0.466	0.494	0.429	0.443	0.355	0.454	0.513	0.459	0.41	0.289
NCI-H1755	0.681	0.71	0.583	0.494	0.45	1.09	1.12	1.05	1.02	0.653	0.481	0.494	0.377	0.405	0.357	0.383	0.408	0.367	0.204	0.205
NCI-H1792	0.613	0.505	0.48	0.354	0.196	0.882	0.904	0.874	0.925	0.376	0.26	0.27	0.258	0.17	0.288	0.245	0.239	0.164	0.0977	0.0839
NCI-H1793	0.519	0.56	0.383	0.256	0.253	0.884	0.971	0.575	0.56	0.405	0.312	0.279	0.398	0.408	0.361	0.317	0.333	0.285	0.235	0.219
NCI-H1915	0.276	0.246	0.258	0.229	0.197	0.955	1.04	1.03	1.01	0.443	0.924	0.96	0.927	0.898	0.845	0.899	0.94	0.844	0.328	0.218
NCI-H1944	0.391	0.372	0.258	0.25	0.245	0.802	0.864	0.753	0.876	0.859	0.358	0.365	0.356	0.37	0.316	0.332	0.398	0.336	0.268	0.25
NCI-H1975	0.358	0.35	0.301	0.169	0.155	0.836	0.841	0.817	0.874	0.395	0.276	0.309	0.278	0.273	0.257	0.206	0.245	0.228	0.151	0.139
NCI-H1993	0.537	0.54	0.559	0.645	0.466	0.787	0.822	0.841	0.826	0.814	0.76	0.708	0.861	0.791	0.85	0.878	0.876	0.916	0.888	0.833
NCI-H2009	0.433	0.385	0.4	0.409	0.323	0.933	0.944	0.889	0.89	0.792	0.8	0.819	0.804	0.804	0.603	0.811	0.941	0.882	0.73	0.546
NCI-H2023	0.199	0.14	0.157	0.0887	0.0748	0.759	0.798	0.618	0.565	0.471	0.273	0.211	0.216	0.23	0.193	0.173	0.182	0.146	0.126	0.0933
NCI-H2085	0.552	0.545	0.51	0.483	0.405	0.77	0.771	0.744	0.726	0.65	0.441	0.474	0.464	0.446	0.421	0.477	0.388	0.378	0.382	0.403
NCI-H2087	0.283	0.302	0.186	0.133	0.106	1.11	1.09	1.07	0.997	0.807	0.881	0.848	0.876	0.807	0.642	0.741	0.822	0.826	0.353	0.315
NCI-H2126	0.557	0.53	0.57	0.418	0.346	0.729	0.754	0.722	0.776	0.67	0.455	0.524	0.486	0.521	0.442	0.44	0.545	0.47	0.301	0.298
NCI-H2170	0.465	0.468	0.376	0.281	0.236	0.245	0.265	0.251	0.286	0.297	0.328	0.316	0.299	0.299	0.304	0.38	0.375	0.325	0.235	0.167

— the supplement of paper PMC10307832
